According to US20220062233A1 (The Board of Trustees of the Leland Stanford Junior …, priority 2018, published 2022):
pIC50: −log10 of the molar value.

Experiments:
[1] = molecular target: T1, interaction between Supt4h and NGN (subunit of Supt5h) (Homo sapiens, UniProt O00267+P63272); assay: Split Gaussia luciferase complementation assay (M2-8 Luciferase); format: cell-based; details: M2-8 cells
T1 construct: expressed in transfected cells
Outline: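 HEK293-derived M2-8 cells inducibly express Supt4h-Gluc1 and NGN-Gluc2 fragments (stabilizing mutations) on RheoSwitch ligand addition; ligand plus compound added 24 h after plating and left 24 h. Cells frozen, lysed with 10 μg/ml native coelenterazine, 1 h room temperature dark; complemented luciferase luminescence read.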

M2-8 cells = assay: M2-8 Cell viability Assay; format: cell-based; details: at the concentration of 1000 nM
mutant HTT = assay: Mutant HTT assay in lymphoblastoid cells (LBC), Western blot; format: cell-based, human; details: read-out: LBC IC20 (nM) mHTT, 3 days compound treatment
Outline: (§1)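 HD patient lymphoblastoid cells (GM14044, 250 CAG repeats in mutant allele) treated with compound for 3 days. Lysates normalised by BCA, run on SDS-PAGE and immunoblotted: mutant HTT with anti-polyQ MW1, wild-type HTT with anti-Huntingtin antibody, TBP and tubulin also probed. Band intensities quantified by infrared imaging.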

wild-type HTT = assay: Wild-type HTT assay in lymphoblastoid cells (LBC), Western blot; format: cell-based, human; details: 3 days compound treatment, read-out: LBC IC20 (nM) wtHTT
Outline: as §1

[2] = tested on: Lymphoblastoid cells (GM14044); assay: LBC cell viability (Cell Titer-Glo); format: cell-based, human; details: at the concentration of IC20, 3-day compound treatment
Method: Cell viability was determined by Cell Titer-Glo reagent (Promega, PRG9243). After 3-day compound treatment, 15 μl of cell suspension was taken out from plate and incubated with 10 μl of CTG reagent. The values of reaction mixture were detected by Tecan.

[3] = tested on: Huntington's disease patient iPSCs (ND50036); assay: iPSC viability at IC20; format: cell-based, human; details: at the concentration of IC20
mouse hepatocytes = assay: In vitro metabolic stability in mouse hepatocytes; format: in vitro ADME
Method: A. In Vitro Metabolic Stability in Hepatocyte
A compound's metabolic stability was assessed using mouse hepatocytes incubated with pre-defined concentration of test articles over several incubation period. The extent of metabolism was calculated from the disappearance of the test compound measured by liquid chromatography mass spectrometry (LC-MS), compared to that of 0-min control. After incubation, quench solutions including internal standards were added and analyzed by LC/MS. The elimination rate constant and intrinsic clearance (CLhepatocyte) values were calculated by linear regression of the compound elimination over the duration of incubation, normalized to the cell number in the given volume of incubation medium.

OCCOCc1ccc(CN[C@@H]2CCCc3c2[nH]c2ccc(Br)cc32)cc1 (single isomer, unassigned) [Compound 28]
pIC50 [1]: ≥ 7.00 | M2-8 Cell viability (M2-8 cells): + (cell viability is greater than 50% at the concentration of 1000 nM) | IC20 (mutant HTT): < 100 nM | IC20 (wild-type HTT): > 1000 nM | LBC viability at IC20 [2]: * (cell viability is greater than 60% at the concentration of IC20) | iPSC viability at IC20 [3]: + (cell viability is greater than 75% at the concentration of IC20) | Mouse HepStability (CLhepatocyte) (mouse hepatocytes): A (CLhepatocyte <10 μl/min/10^6cells)

OCc1ccc(CNC2CCCc3c2[nH]c2ccc(Br)cc32)cc1 (stereo not drawn) [Compound 1]
pIC50 [1]: ≥ 7.00 | M2-8 Cell viability (M2-8 cells): + (cell viability is greater than 50% at the concentration of 1000 nM) | IC20 (mutant HTT): 101 to 300 nM | IC20 (wild-type HTT): > 1000 nM | LBC viability at IC20 [2]: * (cell viability is greater than 60% at the concentration of IC20) | Mouse HepStability (CLhepatocyte) (mouse hepatocytes): C (CLhepatocyte >30 μl/min/10^6cells)

OCc1ccc(CN[C@@H]2CCCc3c2[nH]c2ccc(Br)cc32)cc1 [Compound 2, (R)-(4-(((6-bromo-2,3,4,9-tetrahydro-1H-carbazol-1-yl)amino)methyl)phenyl)methanol]
pIC50 [1]: ≥ 7.00 | M2-8 Cell viability (M2-8 cells): + (cell viability is greater than 50% at the concentration of 1000 nM) | IC20 (mutant HTT): < 100 nM | IC20 (wild-type HTT): > 250 nM | LBC viability at IC20 [2]: * (cell viability is greater than 60% at the concentration of IC20) | iPSC viability at IC20 [3]: + (cell viability is greater than 75% at the concentration of IC20) | Mouse HepStability (CLhepatocyte) (mouse hepatocytes): C (CLhepatocyte >30 μl/min/10^6cells) | elimination in in vitro hepatocyte stability assay (comparison) (mouse hepatocytes; compound #2 versus deuterated compound #42, FIG. 1A): more rapidly eliminated

CC(C)(O)c1ccc(CN[C@@H]2CCCc3c2[nH]c2ccc(Br)cc32)cc1 [Compound 31, (R)-2-(4-(((6-bromo-2,3,4,9-tetrahydro-1H-carbazol-1-yl)amino)methyl)phenyl)propan-2-ol]
pIC50 [1]: ≥ 7.00 | M2-8 Cell viability (M2-8 cells): + (cell viability is greater than 50% at the concentration of 1000 nM) | IC20 (mutant HTT): < 100 nM | IC20 (wild-type HTT): > 250 nM | LBC viability at IC20 [2]: * (cell viability is greater than 60% at the concentration of IC20) | iPSC viability at IC20 [3]: + (cell viability is greater than 75% at the concentration of IC20) | Mouse HepStability (CLhepatocyte) (mouse hepatocytes): A (CLhepatocyte <10 μl/min/10^6cells)

[2H]C([2H])(O)c1ccc(CN[C@@H]2CCCc3c2[nH]c2ccc(Br)cc32)cc1 [Compound 42, (R)-(4-(((6-bromo-2,3,4,9-tetrahydro-1H-carbazol-1-yl)amino)methyl)phenyl)methan-d2-ol]
pIC50 [1]: ≥ 7.00 | M2-8 Cell viability (M2-8 cells): + (cell viability is greater than 50% at the concentration of 1000 nM) | IC20 (mutant HTT): < 100 nM | IC20 (wild-type HTT): > 1000 nM | LBC viability at IC20 [2]: * (cell viability is greater than 60% at the concentration of IC20) | iPSC viability at IC20 [3]: + (cell viability is greater than 75% at the concentration of IC20) | Mouse HepStability (CLhepatocyte) (mouse hepatocytes): C (CLhepatocyte >30 μl/min/10^6cells)

CS(=N)(=O)c1ccc(CN[C@@H]2CCCc3c2[nH]c2ccc(Br)cc32)cc1 (stereo partly drawn) [Compound 49, (4-((((R)-6-bromo-2,3,4,9-tetrahydro-1H-carbazol-1-yl)amino)methyl)phenyl)(imino)(methyl)-λ^6-sulfanone]
pIC50 [1]: ≥ 7.00 | M2-8 Cell viability (M2-8 cells): + (cell viability is greater than 50% at the concentration of 1000 nM) | IC20 (mutant HTT): 101 to 300 nM | IC20 (wild-type HTT): > 500 nM | LBC viability at IC20 [2]: * (cell viability is greater than 60% at the concentration of IC20) | iPSC viability at IC20 [3]: + (cell viability is greater than 75% at the concentration of IC20) | Mouse HepStability (CLhepatocyte) (mouse hepatocytes): B (CLhepatocyte 10-30 μl/min/10^6cells)
